Experimental data taken from patent US20240336596A1, “PARP7 INHIBITOR AND USE THEREOF” (NOVOSTAR PHARMACEUTICALS, LTD., priority 2022, published 2024).

system: NCI-H1373 cancer cells; assay: NCI-H1373 cancer cell growth inhibition (CellTiter-Glo, 144 hours); type: cell-based; conditions: Homo sapiens, 144 hours culture
Method: Promega CellTiter-Glo cell activity assay kit (Item No.: Promege-G7573) was used to determine the cell activity. 90 μL NCI-H1373 cell suspension (ATCC, catalog No. CRL-5866, batch No. 58078716) was spread into the pores of the 96-well plate with 3500 cells per well. After 24 hours, the 10 μL prepared 10× compound working solution was added into the pores of the cell culture plate with a final concentration of 10 μM. 3.3333 μM, 1.1111 μM, 0.3704 μM, 0.1235 μM, 0.0412 μM, 0.0137 μM, 0.0046 μM, 0.0015 μM, 0.0005 μM, 10 μL DMSO was added to the solvent control, and the final concentration of DMSO was 0.2%. The 0-day plates were collected for analysis, and after 144 hours of culture, the growth condition of cells was detected according to the instructions of CellTiter-Glo cell activity assay kit. Add 50 μL of CellTiter-Glo working liquid into each hole of the cell culture plate, shake the plates in the dark for 2 minutes until cell lysis, and place at room temperature for 10 minutes to detect the luminous signal (RUL) of each cell hole on the 2104En Vision board reader.
Calculation formula: Growth inhibition rate %=(1−(RLU compound−RLU Day0)/(RLU solvent control−RLU Day0))*100%. The dose-response curves of each compound were fitted by GraphPad Prism 8 to obtain IC50 values.
For the matter, IC50 values less than 0.1 μM are labeled “+++”, values from 0.1 to 1 μM are labeled “++”, and values greater than 1 to 10 μM are labeled “+”.

IC50 | SMILES
1000 to 10000 nM | C[C@@H](CONC(=O)C=C1CCN(c2ncc(C(F)(F)F)cn2)CC1)Nc1cn[nH]c(=O)c1C(F)(F)F [Example 20, (S)—N-(2-((6-oxo-5-(trifluoromethyl)-1,6-dihydropyridazin-4-yl)amino)propoxy)-2-(1-(5-(trifluoromethyl)pyrimidin-2-yl)piperidin-4-ylidene)acetamide]
1000 to 10000 nM | C[C@@H](CONC(=O)CN1CCC2(CCN(c3ncc(C(F)(F)F)cn3)CC2)C1)Nc1cn[nH]c(=O)c1C(F)(F)F [Example 56, (S)—N-(2-((6-oxo-5-(trifluoromethyl)-1,6-dihydropyridazin-4-yl)amino)propoxy)-2-(8-(5-(trifluoromethyl)pyrimidin-2-yl)-2,8-diazaspiro(4.5)decan-2-yl)acetamide]
1000 to 10000 nM | [2H]C(C(=O)NOC[C@H](C)Nc1cn[nH]c(=O)c1C(F)(F)F)C1=CCN(c2ncc(C(F)(F)F)cn2)CC1 (stereo partly drawn) [Example 62]
100 to 1000 nM | C[C@@H](CONC(=O)CC1CCN(c2ccc(C(F)(F)F)cn2)CC1)Nc1cn[nH]c(=O)c1C(F)(F)F [Example 32, (S)—N-(2-((6-oxo-5-(trifluoromethyl)-1,6-dihydropyridazin-4-yl)amino)propoxy)-2-(1-(5-(trifluoromethyl)pyridin-2-yl)piperidin-4-yl)acetamide]
1000 to 10000 nM | C[C@@H](CONC(=O)CC1CCN(c2ncc3c(n2)CC[C@@]3(C)O)CC1)Nc1cn[nH]c(=O)c1C(F)(F)F [Example 61]
1000 to 10000 nM | C[C@@H](CON(C)C(=O)CC1CCN(c2ncc(C(F)(F)F)cn2)CC1)Nc1cn[nH]c(=O)c1C(F)(F)F [Example 45, (S)—N-methyl-N-(2-((6-oxo-5-(trifluoromethyl)-1,6-dihydropyridazin-4-yl)amino)propoxy)-2-(1-(5-(trifluoromethyl)pyrimidin-2-yl)piperidin-4-yl)acetamide]
1000 to 10000 nM | C[C@@H](CONC(=O)C1(C2CCN(c3ncc(C(F)(F)F)cn3)CC2)CC1)Nc1cn[nH]c(=O)c1C(F)(F)F [Example 50, (S)—N-(2-((6-oxo-5-(trifluoromethyl)-1,6-dihydropyridazin-4-yl)amino)propoxy)-1-(1-(5-(trifluoromethyl)pyrimidin-2-yl)piperidin-4-yl)cyclopropanecarboxamide]
100 to 1000 nM | CC1=C(CC(=O)NOC[C@H](C)Nc2cn[nH]c(=O)c2C(F)(F)F)CCN(c2ncc(C3CC3)cn2)C1 [Example 31, (S)-2-(1-(5-cyclopropylpyrimidin-2-yl)-5-methyl-1,2,3,6-tetrahydropyridin-4-yl)-N-(2-((6-oxo-5-(trifluoromethyl)-1,6-dihydropyridazin-4-yl)amino)propoxy)acetamide]
1000 to 10000 nM | C[C@@H](CONC(=O)C[C@H]1CCN(c2ncc(C(F)(F)F)cn2)C[C@@H]1O)Nc1cn[nH]c(=O)c1C(F)(F)F [Example 55, 2-((3R,4R)-3-hydroxy-1-(5-(trifluoromethyl)pyrimidin-2-yl)piperidin-4-yl)-N—((S)-2-((6-oxo-5-(trifluoromethyl)-1,6-dihydropyridazin-4-yl)amino)propoxy)acetamide]
1000 to 10000 nM | C[C@@H](CONC(=O)CC1CCN(c2ncc3c(n2)CCC3=O)CC1)Nc1cn[nH]c(=O)c1C(F)(F)F [Example 42, (S)—N-(2-((6-oxo-5-(trifluoromethyl)-1,6-dihydropyridazin-4-yl)amino)propoxy)-2-(1-(5-oxo-6,7-dihydro-5H-cyclopenta(d)pyrimidin-2-yl)piperidin-4-yl)acetamide]
1000 to 10000 nM | C[C@@H](CONS(=O)(=O)CC1CCN(c2ncc(C(F)(F)F)cn2)CC1)Nc1cn[nH]c(=O)c1C(F)(F)F [Example 47, (S)—N-(2-((6-oxo-5-(trifluoromethyl)-1,6-dihydropyridazin-4-yl)amino)propoxy)-1-(1-(5-(trifluoromethyl)pyrimidin-2-yl)piperidin-4-yl)methanesulfonamide]
100 to 1000 nM | C[C@@H](CONC(=O)CC1CCN(c2ccc(C#N)cn2)CC1)Nc1cn[nH]c(=O)c1C(F)(F)F [Example 34, (S)-2-(1-(5-cyanopyridin-2-yl)piperidin-4-yl)-N-(2-((6-oxo-5-(trifluoromethyl)-1,6-dihydropyridazin-4-yl)amino)propoxy)acetamide]
1000 to 10000 nM | C[C@@H](CONC(=O)C[C@H]1CCN(c2ncc(C(F)(F)F)cn2)C[C@H]1O)Nc1cn[nH]c(=O)c1C(F)(F)F [Example 54, 2-((3S,4R)-3-hydroxy-1-(5-(trifluoromethyl)pyrimidin-2-yl)piperidin-4-yl)-N—((S)-2-((6-oxo-5-(trifluoromethyl)-1,6-dihydropyridazin-4-yl)amino)propoxy)acetamide]
1000 to 10000 nM | CC1CN(c2ncc(C(F)(F)F)cn2)CCC1CC(=O)NOC[C@H](C)Nc1cn[nH]c(=O)c1C(F)(F)F (stereo partly drawn) [Example 52, 2-(3-methyl-1-(5-(trifluoromethyl)pyrimidin-2-yl)piperidin-4-yl)-N—((S)-2-((6-oxo-5-(trifluoromethyl)-1,6-dihydropyridazin-4-yl)amino)propoxy)acetamide]

molecular target: T1, recombinant human PARP7 protein (Homo sapiens, UniProt Q7Z3E1); assay: Inhibition of PARP7 biological enzyme activity (histone-coated plate, Biotin-NAD+, chemiluminescence); type: biochemical; conditions: recombinant human PARP7, Biotin-NAD+ substrate
T1 construct: purchased Abcam ab271651
T1 sequence (Q7Z3E1 1-657): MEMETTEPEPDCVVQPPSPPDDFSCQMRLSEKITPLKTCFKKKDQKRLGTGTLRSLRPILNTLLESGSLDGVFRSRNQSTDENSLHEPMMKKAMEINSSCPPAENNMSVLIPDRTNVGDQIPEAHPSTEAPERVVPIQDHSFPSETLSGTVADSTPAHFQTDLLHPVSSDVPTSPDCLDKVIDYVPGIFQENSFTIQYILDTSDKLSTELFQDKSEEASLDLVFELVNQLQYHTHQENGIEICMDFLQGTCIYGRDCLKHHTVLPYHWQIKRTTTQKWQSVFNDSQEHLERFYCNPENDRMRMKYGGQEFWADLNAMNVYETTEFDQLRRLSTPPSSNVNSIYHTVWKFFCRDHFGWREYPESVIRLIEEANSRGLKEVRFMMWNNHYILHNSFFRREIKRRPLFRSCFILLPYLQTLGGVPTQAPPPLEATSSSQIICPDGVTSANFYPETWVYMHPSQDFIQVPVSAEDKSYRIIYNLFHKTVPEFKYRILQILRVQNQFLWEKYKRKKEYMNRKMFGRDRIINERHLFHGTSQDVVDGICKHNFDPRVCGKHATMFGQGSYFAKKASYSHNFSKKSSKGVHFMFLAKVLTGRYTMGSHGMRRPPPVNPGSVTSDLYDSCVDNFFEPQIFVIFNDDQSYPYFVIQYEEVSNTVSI
Method: The recombinant human PARP7 protein kit (Abcam, catalog number ab271651) was used for the assay. According to the kit instructions, 30 μL of histone coating solution (1.5 μg/mL) was first applied to the 384 well holes of the reaction plate and coated at 4° C. for 2 hours. Then, the histone coated solution was washed off, and 50 μL sealing buffer was added to each well, and the sealing buffer was washed off after incubation at 25° C. for 60 minutes. 1000 times the concentration of the compound was 10 configured and diluted from 1 mM to 0.05 μM, and the configured compound was transferred to 384-well plates with 25 nL per well using Echo. The final concentration of the compound in the reaction system was 1000 nM, 333.33 nM, 111.11 nM, 37.03 nM, 12.34 nM, 4.11 nM, 1.37 nM, 0.45 nM, 0.15 nM, 0.05 nM, which was used as the test hole. At the same time, 25 nL DMSO was added to the negative control well and the positive control well. The PARP7 enzyme solution with a concentration of 1.67 times was prepared, and the PARP7 enzyme solution was added to the test hole and the positive control hole with 15 μL each, while the negative control hole was added with 15 μL base Buffer, and incubated at 25° C. for 15 minutes. Then 10 μL 2.5 times Biotin-NAD+ substrate solution was added and incubated at 25° C. for 60 min. After the reaction solution was washed off, the 384-well reaction plates were treated with closed buffer solution diluted with streptavidin-HRP (1:500), each well was 30 μL, and incubated at 25° C. for 30 min. After the HRP buffer was washed off, 30 μL HRP chemiluminescent substrate mixture was added to each well, and the luminescence signal (RLU) of each well was detected by Envision. Calculation formula: Inhibition rate %=(average positive control-RLU compound)/(average positive control-average negative control))*100%. The dose-response curves of each compound were fitted by GraphPad Prism 8 to get IC50 values. IC50 values less than 0.01 μM are labeled as “+++”, IC50 values from 0.01 to 0.1 µM are labeled as “++”, and IC50 values greater than 0.1 to 10.0 μM are labeled as “+”.

IC50 | SMILES
10 to 100 nM | C/C(=N\OCC(=O)N1CCN(c2ncc(C(F)(F)F)cn2)CC1)[C@H](C)Nc1cn[nH]c(=O)c1C(F)(F)F [Example 8, (S,E)-5-((3-((2-oxo-2-(4-(5-(trifluoromethyl)pyrimidin-2-yl)piperazin-1-yl)ethoxy)imino)butan-2-yl)amino)-4-(trifluoromethyl)pyridazin-3(2H)-one]
< 10 nM | C[C@@H](CNOCC(=O)N1CCN(c2ncc(C(F)(F)F)cn2)CC1)Nc1cn[nH]c(=O)c1C(F)(F)F [Example 1, (S)-5-((1-((2-oxo-2-(4-(5-(trifluoromethyl)pyrimidin-2-yl)piperazin-1-yl)ethoxy)amino)propan-2-yl)amino)-4-(trifluoromethyl)pyridazin-3(2H)-one]
< 10 nM | C[C@@H](CN(C)OCC(=O)N1CCN(c2ncc(C(F)(F)F)cn2)CC1)Nc1cn[nH]c(=O)c1C(F)(F)F [Example 2, (S)-5-((1-(methyl(2-oxo-2-(4-(5-(trifluoromethyl)pyrimidin-2-yl)piperazin-1-yl)ethoxy)amino)propan-2-yl)amino)-4-(trifluoromethyl)pyridazin-3(2H)-one]
10 to 100 nM | C/C(=N\OC[C@H](C)Nc1cn[nH]c(=O)c1C(F)(F)F)C(=O)N1CCN(c2ncc(C(F)(F)F)cn2)CC1 [Example 16, (S,E)-5-((1-(((1-oxo-1-(4-(5-(trifluoromethyl)pyrimidin-2-yl)piperazin-1-yl)propan-2-ylidene)amino)oxy)propan-2-yl)amino)-4-(trifluoromethyl)pyridazin-3(2H)-one]
